From patent US7214824B2, “Substituted N-sulfonylaminobenzyl-2-phenoxyacetamide compounds as VR1 receptor agonists” (Pfizer Inc., priority 2004, dated 2007)

SMILES | melting point [°C]
CC(C)(C)c1ccc(OCC(=O)NCc2ccc(NS(C)(=O)=O)cc2)cc1 [Example 9, 2-(4-tert-Butylphenoxy)-N-{4-[(methylsulfonyl)amino]benzyl}acetamide] | 163.1
CC(C)(C)c1ccc(OCC(=O)NCc2ccc(NS(C)(=O)=O)c(O)c2)cc1 [Example 12, 2-(4-tert-Butylphenoxy) -N-{3-hydroxy-4-[(methylsulfonyl)amino]benzyl}acetamide] | 112.3
